# Laboratory results taken from US20200264182A1, “METHOD FOR DETECTING PROSTATE CANCER” (J-OIL MILLS, INC., priority 2017, published 2020).
# Assays:
# [1] = FAC binding constant; details: at 25° C.
# Experimental: (§1) Details of the FAC method are described in Patent Document 2 filed by some of the present applicants, for example.
# (§2) Binding constants (at 25° C.) of PhoSL, SRL, NSL and LSL belonging to the fucose α1→6 specific lectin for various sugar chains are shown in Tables 2 to 5.
# [2] = FAC binding constant (Table 5 entry); details: Table 5: sugar chain having no fucose; at 25° C.
# Experimental: as §1, §2
# [3] = tested on: serum fucosylated PSA; experiment: Sandwich ELISA, anti-PSA antibody and biotin-labeled lectin; type: binding, human; details: for Δ (=A − B): reaction value of Prostate cancer 4 minus Healthy 1; for lectin reaction value B of Healthy 1: serum of Healthy 1; for lectin reaction value A of Prostate cancer 4: serum of Prostate cancer 4, GS 6 (3 + 3)
# Experimental: The anti-PSA antibody from which sugar chains had been removed was diluted to 5 μg/mL with PBS. 25 μL of this diluted solution was added to each well of an ELISA plate and allowed to stand at 37° C. for 12 hours, and then the additive solution was discarded.
# 150 μL of PBS containing 0.05% Tween 20 (product name: polyoxyethylene sorbitan monolaurate, from Nacalai Tesque, Inc.) was added to each well, and then the additive solution was discarded. This manipulation was repeated three times in total.
# 25 μL of 1% BSA/PBS was added to each well and allowed to stand at 37° C. for 1 hour, and then the additive solution was discarded.
# 150 μL of PBS containing 0.05% Tween 20 was added to each well, and then the additive solution was discarded. This manipulation was repeated three times in total.
# To graph a calibration curve, 25 μL of the fucosylated PSA reference standard diluted with 1% BSA/PBS to a concentration of 0 to 200 ng/mL was added to each well and allowed to stand at room temperature for 1 hour, and then the additive solution was discarded. In addition, to detect the fucosylated PSA in the serum of the subject by the lectin, 25 μL of serum of “Healthy 1” and “Prostate cancer 4” 2-fold diluted with PBS was added to each well and allowed to stand at room temperature for 1 hour, and then the additive solution was discarded.
# In Reference Example 1, 25 μL of a biotin-labeled PhoSL diluted to 0.1 μg/mL with 0.1% BSA/PBS (pH 7.4) was added to each well and allowed to stand at 4° C. for 30 minutes, and then the additive solution was discarded. In Example 1, 25 μL of a biotin-labeled PhoSL diluted to 0.1 μg/mL with 0.1% BSA/10-fold diluted PBS+glycine-NaOH (pH 9.6) was added to each well and allowed to stand at 4° C. for 30 minutes, and then the additive solution was discarded.
# 25 μL of a horseradish peroxidase (HRP)-labeled streptavidin solution (from Vector Laboratories, Inc., concentration: 0.4 μg/mL, in 1% BSA/PBS) was added to each well and allowed to stand at room temperature for 30 minutes, and then the additive solution was discarded.
# 25 μL of chromogenic substrate for HRP (product name: TMB, from Kirkegaard & Perry Laboratories, Inc.) was added to each well and allowed to stand at room temperature for 10 minutes.
# 25 μL of 1M phosphoric acid was added to terminate the reaction.
# Absorbance (Ab) at 450 nm and 630 nm was measured using a plate reader, and a measurement (Ab450-630) was obtained.
# A calibration curve was graphed by plotting signals (reaction values, Ab450-630) of the fucosylated PSA reference standard with the biotin-labeled PhoSL. A Signal (Ab450-630) of the biotin-labeled PhoSL corresponding to the fucosylated PSA concentration of 10 ng/mL was defined as 10 U/mL.
# The signals of biotin-labeled PhoSL (Ab450-630) for the serum fucosylated PSA in the subject samples A were assigned to the calibration curve to calculate reaction values (unit: U/mL).
# The PhoSL reaction values for the subject samples A were measured by the same operation as in Example 1. From the PhoSL reaction values, an average value and a median value were determined. Furthermore, a standard cutoff value (89.7 U/mL) was used to determine a detection rate (positive rate) of the prostate cancer patients, and a false detection rate (false positive rate) of the healthy persons.
# Comparative Example 2 in Table 9 indicates results of detecting the serum fucosylated PSA using AAL (AAL reaction values) in the subject samples A. Specifically, in Reference Example 1, AAL reaction values were measured in the same manner as in Reference Example 1 except that the biotin-labeled PhoSL was replaced with a biotin-labeled AAL. A standard cut-off value for the AAL reaction values was 894.8 U/mL. As in Example 2, an average value, a median value, a positive rate and a false positive rate were determined from the AAL reaction values.
# [4] = sugar chain having fucose other than α1→6 fucose
substance,measurement,setting,value
"LSL: fucose α1→6 specific lectin that can be extracted from Lepista sordida, SEQ ID No. 3",Binding constant for sugar chain No. 728,[1]; Table 3: sugar chain having fucose other than α1→6 fucose,<1000 M⁻¹
same,Binding constant for sugar chain No. 419,[1]; [4],<1000 M⁻¹
same,Binding constant for sugar chain No. 420,[1]; [4],<1000 M⁻¹
same,Binding constant for sugar chain No. 718,[1]; [4],<1000 M⁻¹
same,Binding constant for sugar chain No. 719,[1]; [4],<1000 M⁻¹
same,Binding constant for sugar chain No. 720,[1]; [4],<1000 M⁻¹
same,Binding constant for sugar chain No. 721,[1]; [4],<1000 M⁻¹
same,Binding constant for sugar chain No. 722,[1]; [4],<1000 M⁻¹
same,Binding constant for sugar chain No. 723,[1]; [4],<1000 M⁻¹
same,Binding constant for sugar chain No. 726,[1]; [4],<1000 M⁻¹
same,Binding constant for sugar chain No. 727,[1]; [4],<1000 M⁻¹
same,Binding constant for sugar chain No. 729,[1]; [4],<1000 M⁻¹
same,Binding constant for sugar chain No. 730,[1]; [4],<1000 M⁻¹
same,Binding constant for sugar chain No. 731,[1]; [4],<1000 M⁻¹
same,Binding constant for sugar chain No. 739,[1]; [4],<1000 M⁻¹
same,Binding constant for sugar chain No. 909,[1]; [4],<1000 M⁻¹
same,Binding constant for sugar chain No. 910,[1]; [4],<1000 M⁻¹
same,Binding constant for sugar chain No. 931,[1]; [4],<1000 M⁻¹
same,Binding constant for sugar chain No. 932,[1]; [4],<1000 M⁻¹
same,Binding constant for sugar chain No. 933,[1]; [4],<1000 M⁻¹
same,Binding constant for sugar chain No. 001,[1]; sugar chain having no fucose,<1000 M⁻¹
same,Binding constant for sugar chain No. 002,[1]; sugar chain having no fucose,<1000 M⁻¹
same,Binding constant for sugar chain No. 003,[1]; sugar chain having no fucose,<1000 M⁻¹
same,Binding constant for sugar chain No. 004,[1]; sugar chain having no fucose,<1000 M⁻¹
same,Binding constant for sugar chain No. 005,[1]; sugar chain having no fucose,<1000 M⁻¹
same,Binding constant for sugar chain No. 006,[1]; sugar chain having no fucose,<1000 M⁻¹
same,Binding constant for sugar chain No. 007,[1]; sugar chain having no fucose,<1000 M⁻¹
same,Binding constant for sugar chain No. 008,[1]; sugar chain having no fucose,<1000 M⁻¹
same,Binding constant for sugar chain No. 009,[1]; sugar chain having no fucose,<1000 M⁻¹
same,Binding constant for sugar chain No. 010,[1]; sugar chain having no fucose,<1000 M⁻¹
same,Binding constant for sugar chain No. 011,[1]; sugar chain having no fucose,<1000 M⁻¹
same,Binding constant for sugar chain No. 012,[1]; sugar chain having no fucose,<1000 M⁻¹
same,Binding constant for sugar chain No. 013,[1]; sugar chain having no fucose,<1000 M⁻¹
same,Binding constant for sugar chain No. 014,[1]; sugar chain having no fucose,<1000 M⁻¹
same,Binding constant for sugar chain No. 101,[1]; sugar chain having no fucose,<1000 M⁻¹
same,Binding constant for sugar chain No. 103,[1]; sugar chain having no fucose,<1000 M⁻¹
same,Binding constant for sugar chain No. 104,[1]; sugar chain having no fucose,<1000 M⁻¹
same,Binding constant for sugar chain No. 105,[1]; sugar chain having no fucose,<1000 M⁻¹
same,Binding constant for sugar chain No. 107,[1]; sugar chain having no fucose,<1000 M⁻¹
same,Binding constant for sugar chain No. 108,[1]; sugar chain having no fucose,<1000 M⁻¹
same,Binding constant for sugar chain No. 301,[1]; sugar chain having no fucose,<1000 M⁻¹
same,Binding constant for sugar chain No. 304,[1]; sugar chain having no fucose,<1000 M⁻¹
same,Binding constant for sugar chain No. 305,[1]; sugar chain having no fucose,<1000 M⁻¹
same,Binding constant for sugar chain No. 307,[1]; sugar chain having no fucose,<1000 M⁻¹
same,Binding constant for sugar chain No. 308,[1]; sugar chain having no fucose,<1000 M⁻¹
same,Binding constant for sugar chain No. 313,[1]; sugar chain having no fucose,<1000 M⁻¹
same,Binding constant for sugar chain No. 314,[1]; sugar chain having no fucose,<1000 M⁻¹
same,Binding constant for sugar chain No. 323,[1]; sugar chain having no fucose,<1000 M⁻¹
same,Binding constant for sugar chain No. 501,[1]; sugar chain having no fucose,<1000 M⁻¹
same,Binding constant for sugar chain No. 502,[1]; sugar chain having no fucose,<1000 M⁻¹
same,Binding constant for sugar chain No. 503,[1]; sugar chain having no fucose,<1000 M⁻¹
same,Binding constant for sugar chain No. 504,[1]; sugar chain having no fucose,<1000 M⁻¹
same,Binding constant for sugar chain No. 701,[1]; sugar chain having no fucose,<1000 M⁻¹
same,Binding constant for sugar chain No. 702,[1]; sugar chain having no fucose,<1000 M⁻¹
same,Binding constant for sugar chain No. 703,[1]; sugar chain having no fucose,<1000 M⁻¹
same,Binding constant for sugar chain No. 704,[1]; sugar chain having no fucose,<1000 M⁻¹
same,Binding constant for sugar chain No. 705,[1]; sugar chain having no fucose,<1000 M⁻¹
same,Binding constant for sugar chain No. 706,[1]; sugar chain having no fucose,<1000 M⁻¹
same,Binding constant for sugar chain No. 707,[1]; sugar chain having no fucose,<1000 M⁻¹
same,Binding constant for sugar chain No. 708,[1]; sugar chain having no fucose,<1000 M⁻¹
same,Binding constant for sugar chain No. 709,[1]; sugar chain having no fucose,<1000 M⁻¹
same,Binding constant for sugar chain No. 710,[1]; sugar chain having no fucose,<1000 M⁻¹
same,Binding constant for sugar chain No. 711,[1]; sugar chain having no fucose,<1000 M⁻¹
same,Binding constant for sugar chain No. 712,[1]; sugar chain having no fucose,<1000 M⁻¹
same,Binding constant for sugar chain No. 713,[1]; sugar chain having no fucose,<1000 M⁻¹
same,Binding constant for sugar chain No. 715,[1]; sugar chain having no fucose,<1000 M⁻¹
same,Binding constant for sugar chain No. 716,[1]; sugar chain having no fucose,<1000 M⁻¹
same,Binding constant for sugar chain No. 717,[1]; sugar chain having no fucose,<1000 M⁻¹
same,Binding constant for sugar chain No. 724,[1]; sugar chain having no fucose,<1000 M⁻¹
same,Binding constant for sugar chain No. 725,[1]; sugar chain having no fucose,<1000 M⁻¹
same,Binding constant for sugar chain No. 732,[1]; sugar chain having no fucose,<1000 M⁻¹
same,Binding constant for sugar chain No. 733,[1]; sugar chain having no fucose,<1000 M⁻¹
same,Binding constant for sugar chain No. 734,[1]; sugar chain having no fucose,<1000 M⁻¹
same,Binding constant for sugar chain No. 735,[1]; sugar chain having no fucose,<1000 M⁻¹
same,Binding constant for sugar chain No. 736,[1]; sugar chain having no fucose,<1000 M⁻¹
same,Binding constant for sugar chain No. 737,[1]; sugar chain having no fucose,<1000 M⁻¹
same,Binding constant for sugar chain No. 738,[1]; sugar chain having no fucose,<1000 M⁻¹
same,Binding constant for sugar chain No. 901,[1]; sugar chain having no fucose,<1000 M⁻¹
same,Binding constant for sugar chain No. 902,[1]; sugar chain having no fucose,<1000 M⁻¹
same,Binding constant for sugar chain No. 903,[1]; sugar chain having no fucose,<1000 M⁻¹
same,Binding constant for sugar chain No. 905,[1]; sugar chain having no fucose,<1000 M⁻¹
same,Binding constant for sugar chain No. 906,[1]; sugar chain having no fucose,<1000 M⁻¹
same,Binding constant for sugar chain No. 907,[1]; sugar chain having no fucose,<1000 M⁻¹
same,Binding constant for sugar chain No. 015,[1]; sugar chain having α1→6 fucose,190000 M⁻¹
same,Binding constant for sugar chain No. 201,[1]; sugar chain having α1→6 fucose,230000 M⁻¹
same,Binding constant for sugar chain No. 202,[1]; sugar chain having α1→6 fucose,230000 M⁻¹
same,Binding constant for sugar chain No. 203,[1]; sugar chain having α1→6 fucose,200000 M⁻¹
same,Binding constant for sugar chain No. 401,[1]; sugar chain having α1→6 fucose,350000 M⁻¹
same,Binding constant for sugar chain No. 402,[1]; sugar chain having α1→6 fucose,200000 M⁻¹
same,Binding constant for sugar chain No. 403,[1]; sugar chain having α1→6 fucose,340000 M⁻¹
same,Binding constant for sugar chain No. 404,[1]; sugar chain having α1→6 fucose,390000 M⁻¹
same,Binding constant for sugar chain No. 405,[1]; sugar chain having α1→6 fucose,320000 M⁻¹
same,Binding constant for sugar chain No. 406,[1]; sugar chain having α1→6 fucose,220000 M⁻¹
same,Binding constant for sugar chain No. 407,[1]; sugar chain having α1→6 fucose,280000 M⁻¹
same,Binding constant for sugar chain No. 410,[1]; sugar chain having α1→6 fucose,220000 M⁻¹
same,Binding constant for sugar chain No. 413,[1]; sugar chain having α1→6 fucose,280000 M⁻¹
same,Binding constant for sugar chain No. 418,[1]; sugar chain having α1→6 fucose,220000 M⁻¹
same,Binding constant for sugar chain No. 601,[1]; sugar chain having α1→6 fucose,240000 M⁻¹
same,Binding constant for sugar chain No. 602,[1]; sugar chain having α1→6 fucose,120000 M⁻¹
same,Binding constant for sugar chain No. 728,[2],<1000 M⁻¹
"PhoSL peptide: synthesized Pholiota squarrosa lectin peptide, SEQ ID No. 6 (Lys substitutions at 1, 20, 39; 40th Gly deleted) (KPVPVTKLVCDGDTYKCTAKLDFGDGRWVAQWDTNVFHK; Modification of SEQ ID(1) in which Ala at position 1, Tyr at position 20 and Thr at position 39 are substituted with Lys, and Gly at position 40 is deleted.)",Δ (=A − B),[3]; pH in lectin reaction 7.4,100.5 U/mL
same,Δ (=A − B),[3]; pH in lectin reaction 9.6,234.4 U/mL
same,lectin reaction value B of Healthy 1,[3]; pH in lectin reaction 7.4,1.0 U/mL
same,lectin reaction value B of Healthy 1,[3]; pH in lectin reaction 9.6,Below detection limit
same,lectin reaction value A of Prostate cancer 4,[3]; pH in lectin reaction 7.4,101.5 U/mL
same,lectin reaction value A of Prostate cancer 4,[3]; pH in lectin reaction 9.6,234.4 U/mL
